The values below come from patent US6583138B1, “Heterocyclic-ring condensed benzothiazine compound” (Eisai Co., Ltd., priority 1998, dated 2003).

The structures appear in SMILES notation. Read-outs that look alike come from different tables or passages of the source.

The test system of one experiment is RBL-2H3 cells. The experiment in a line: Inhibition of serotonin liberation from IgE-sensitized, antigen-stimulated RBL-2H3 cells. Type of experiment: cell-based. The note with it: Rattus norvegicus, [3H]-serotonin release, IgE-sensitized cells stimulated with specific antigen. From the text:
(1) Inhibitory Effects on Various Mediators Release from Rat Basophilic Leukemia Cell Line (RBL-2H3)
RBL-2H3cells (i.e., a cell line originating in rat cells), by stimulation with IgE sepecific antigen, not only release histamine and serotonin but also release and produce cytokines such as TNF α and prostaglandins which are inflammatory mediators. In this experimental system, inhibitory effects on various mediators release were examined by using serotonin as an indication.
The cells were beforehand labeled with [^3H]-labeled serotonin and, at the same time, sensitized with the IgE antibody. After incubating with the compounds of the present invention, they were stimulated with the specific antigen. Then the inhibitory activity of each compound was calculated from the amount of the [^3H]-labeled serotonin thus liberated into the medium due to the stimulation and the amount of [^3H]-labeled serotonin liberated when no compound of the present invention was added.

In the next experiment the test system is human basophils. Description: Inhibition of mediator (histamine, peptide leukotriene) liberation from human basophils stimulated with mite antigen. Type of experiment: cell-based. The note with it: leukocyte fraction, enzyme immunoassay. On the procedure: (2) Inhibitory Effects on Various Mediators Release from Human Basophils
6 ml of 6% dextran (for separating leukocytes, having a high molecular weight) was added to 20 ml of heparinized blood. After stirring well, the resulting mixture was allowed to stand at 37° C. for 30 min and thus erythrocytes were precipitated. The upper layer was taken up and phosphate buffered saline was added thereto followed by centrifugation at 185 g for 8 minutes to give a crude leukocyte fraction. These cells were subjected to hypotonic hematolysis and then suspended in D-PBS(+) containing 0.1%-BSA. The resulting suspension was used in the subsequent experiment as the leukocyte fraction containing basophils. 0.4 ml of this cell suspension was preliminarily heated to 37° C. for 5 min and then 0.05 ml of a specimen solution was added thereto followed by a pretreatment at 37° C. for 15 min. Next, 0.05 ml of a mite antigen solution was added thereto to induce an antigen-antibody reaction. After 10 min, the reaction was ceased by ice-cooling. Then the reaction mixture was centrifuged again at 185 g for 10 min and histamine and peptide leukotrienes in the resulting supernatant were determined by using enzyme immunoassay kits. From the results of the assay, the activities of the a heterocyclic ring condensed benzothiazine compound of inhibiting the liberation of histamine and peptide leukotriene were determined.
The results are given in Table 2, wherein the term “leukotriene” means peptide leukotriene.

Setting [1] is: histamine, read-out: IC50 (μM) in mediator liberation from human basophils: histamine.
[2] abbreviates: peptide leukotriene, read-out: IC50 (μM) in mediator liberation from human basophils: leukotriene.

With `COc1cccc(CNCCCN2c3cnccc3[S+]([O-])c3ccc(C)c(C)c32)c1O` (centres unmarked) [Example 37], the IC50 turned out to be 3 µM with RBL-2H3 cells, 30 µM in the experiment with human basophils (setting [1]) and 30 µM in the experiment with human basophils (setting [2]).
Regarding `COc1ccc(CNCCCN2c3cccnc3[S+]([O-])c3ccc(C)c(C)c32)cc1` (centres unmarked) [Example 25], the IC50 with RBL-2H3 cells worked out at 2 µM.
On the same count and under the same terms, for `Cc1ccc2c(c1C)N(CCCNCN1CCN(Cc3ccccc3)CC1)c1cnccc1[S+]2[O-]` (centres unmarked) [Example 39] the value was 3 µM.
As for `CCOc1ccc2c(n1)[S+]([O-])c1ccc(C)c(C)c1N2CCCNCc1ccccc1` (centres unmarked) [Example 52], the IC50 in the experiment on RBL-2H3 cells was 3 µM; in the experiment on human basophils (setting [1]), 10 to 30 µM; with human basophils (setting [2]), 3 µM.
For the compound `COc1ccc2c(n1)[S+]([O-])c1ccc(C)c(C)c1N2CCCNCc1ccccc1` (centres unmarked) [Example 43], the IC50 in the experiment on RBL-2H3 cells was determined as 2 µM; in the experiment with human basophils (setting [1]), 30 µM; in the experiment with human basophils (setting [2]), 10 µM.
For the compound `Cc1ccc2c(n1)[S+]([O-])c1ccc(C)c(C)c1N2CCCNCc1ccccc1` (centres unmarked) [Example 44], the IC50 with RBL-2H3 cells came to 2 µM.
Regarding `Cc1ccc2c(c1C)N(CCCNCc1ccccc1)c1c(Br)csc1[S+]2[O-]` (centres unmarked) [Example 8, 9-(3-benzylaminopropyl)-7,8-dimethyl-3-thieno[1,4]benzothiazine-4-oxide], the IC50 with RBL-2H3 cells was 1 µM; in the experiment on human basophils (setting [1]), 10 µM; in the experiment on human basophils (setting [2]) it was 3 µM.
Consider `Cc1ccc2c(c1C)N(CCCNCc1ccc(Cl)cc1Cl)c1cccnc1[S+]2[O-]` (centres unmarked) [Example 31], for which the IC50 was 2 µM with RBL-2H3 cells, 10 to 30 µM in the experiment on human basophils (setting [1]) and 10 µM with human basophils (setting [2]).
As to `Cc1ccc2c(c1C)N(CCCNCc1cccc(F)c1O)c1c(Br)csc1[S+]2[O-]` (centres unmarked) [Example 10], the IC50 with RBL-2H3 cells was 0.5 µM; in the experiment with human basophils (setting [1]), 30 µM; in the experiment with human basophils (setting [2]), 3 to 10 µM.
Take `Cc1cnc2c(c1)N(CCCNCc1ccccc1)c1c(ccc(C)c1C)[S+]2[O-]` (centres unmarked) [Example 47]: in the experiment with RBL-2H3 cells, the IC50 came out at 3 µM.
On to `COc1cccc(CNCCCN2c3cccnc3[S+]([O-])c3ccc(C)c(C)c32)c1O` (centres unmarked) [Example 17], for which the figures for the IC50 in the experiment on RBL-2H3 cells, with human basophils (setting [1]) and in the experiment on human basophils (setting [2]) were 2 µM, 10 to 30 µM and 10 to 30 µM, respectively.
Take `Cc1ccc2c(c1C)N(CCCNC(C)(C)c1ccccc1)c1c(Br)csc1[S+]2[O-]` (stereo not drawn) [Example 7, 1-Bromo-7,8-dimethyl-9-[3-(α,α-dimethylbenzyl)aminopropyl]-3-thieno[1,4]benzothiazine-4-oxide]: the IC50 is 2 µM in the experiment on RBL-2H3 cells, 3 to 10 µM in the experiment on human basophils (setting [1]) and 3 to 10 µM in the experiment with human basophils (setting [2]).
In the case of `Cc1ccc2c(c1C)N(CCCNCc1cccc(F)c1O)c1cnccc1[S+]2[O-]` (centres unmarked) [Example 41], in the experiment on RBL-2H3 cells, the IC50 was 3 µM.
Take `Cc1ccc2c(c1C)N(CCCNC(C)(C)c1ccccc1)c1cccnc1[S+]2[O-]` (centres unmarked) [Example 34]: the IC50 in the experiment on RBL-2H3 cells stood at 5 µM.
Take `COc1cccc(CNCCCN2c3cccnc3[S+]([O-])c3ccc(C)c(C)c32)c1` (centres unmarked) [Example 24]: in the experiment with RBL-2H3 cells, the IC50 worked out at 4 µM.
On the same count and under the same terms, for `Cc1ccc2c(c1C)N(CCCNCc1ccccc1)c1cccnc1[S+]2[O-]` (centres unmarked) [Example 15] the value was 0.5 µM.
With `Cc1ccc2c(c1C)N(CCCNC(C)(C)c1ccccc1)c1ccsc1[S+]2[O-]` (centres unmarked) [Example 2], the IC50 is 30 µM in the experiment on human basophils (setting [1]) and 10 to 30 µM in the experiment on human basophils (setting [2]).
As for `Cc1ccc2c(c1C)N(CCCNCc1ccccc1)c1cc(Br)cnc1[S+]2[O-]` (centres unmarked) [Example 45], in the experiment on RBL-2H3 cells, the IC50 was 1 µM.
On the same count and under the same terms, under `Cc1ccc2c(c1C)N(CCCCNCc1ccccc1)c1cccnc1[S+]2[O-]` (centres unmarked) [Example 19] stands 1 µM.
As to `COc1ccsc1CNCCCN1c2ccsc2[S+]([O-])c2ccc(C)c(C)c21` (centres unmarked) [Example 6], the IC50 in the experiment on RBL-2H3 cells was 2 µM; in the experiment on human basophils (setting [1]) it was 30 µM; in the experiment with human basophils (setting [2]), 10 to 30 µM.
With `COc1c(CNCCCN2c3cccnc3[S+]([O-])c3ccc(C)c(C)c32)ccc(Cl)c1Cl` (centres unmarked) [Example 33], the IC50 was 2 µM in the experiment with RBL-2H3 cells, 10 to 30 µM in the experiment with human basophils (setting [1]) and 3 to 10 µM in the experiment with human basophils (setting [2]).
As to `Cc1ccc2c(c1C)N(CCCNCN1CCN(Cc3ccccc3)CC1)c1cccnc1[S+]2[O-]` (centres unmarked) [Example 26], the IC50 in the experiment with RBL-2H3 cells worked out at 2 µM.
In the case of `Cc1ccc2c(c1C)N(CCCNCc1cccc(C)c1O)c1cccnc1[S+]2[O-]` (centres unmarked) [Example 18], the IC50 with RBL-2H3 cells was 2 µM; with human basophils (setting [1]), 30 µM; with human basophils (setting [2]), 10 to 30 µM.
With `Cc1ccc2c(c1C)N(CCCN(C)Cc1ccccc1)c1cccnc1[S+]2[O-]` (centres unmarked) [Example 35], the IC50 in the experiment on RBL-2H3 cells came out at 3 µM.
As to `COc1ccccc1CNCCCN1c2cccnc2[S+]([O-])c2ccc(C)c(C)c21` (centres unmarked) [Example 20], the IC50 in the experiment with RBL-2H3 cells stood at 5 µM.
In the case of `Cc1ccc2c(c1C)N(CCCNCc1ccccc1)c1c(CO)csc1[S+]2[O-]` (centres unmarked) [Example 11, 9-(3-benzylaminopropyl)-1-hydroxymethyl-7,8dimethyl-3-thieno[1,4]benzothiazine-4-oxide], the IC50 was 5 µM in the experiment on RBL-2H3 cells, 10 µM in the experiment on human basophils (setting [1]) and 3 µM in the experiment on human basophils (setting [2]).
Regarding `Cc1ccc2c(c1C)N(CCCN)c1cccnc1[S+]2[O-]` (centres unmarked) [Example 13], the IC50 with RBL-2H3 cells is 3 µM.
In the case of `Cc1ccc2c(c1C)N(CCCNCc1ccccc1)c1ccsc1[S+]2[O-]` (centres unmarked) [Example 1, 9-(3-Benzylaminopropyl)-7,8-dimethyl-3-thieno [1,4]benzothiazine-4-oxide], the IC50 was 2 µM with RBL-2H3 cells, 10 to 30 µM in the experiment on human basophils (setting [1]) and 10 µM with human basophils (setting [2]).
In the case of `Cc1ccc2c(c1C)N(CCCNCc1ccccc1)c1cc(Cl)cnc1[S+]2[O-]` (centres unmarked) [Example 46], the IC50 with RBL-2H3 cells was 2 µM.
As to `Cc1ccc2c(c1C)N(CCCNCc1ccccn1)c1cnccc1[S+]2[O-]` (centres unmarked) [Example 40], the IC50 with RBL-2H3 cells was 4 µM.
As to `Cc1ccc2c(c1C)N(CCCNCc1ccccc1)c1cc(C#N)cnc1[S+]2[O-]` (centres unmarked) [Example 48], the IC50 in the experiment with RBL-2H3 cells is 4 µM.
For `CCCOc1ccc2c(n1)[S+]([O-])c1ccc(C)c(C)c1N2CCCNCc1ccccc1` (centres unmarked) [Example 49], the results for the IC50 in the experiment with RBL-2H3 cells, in the experiment with human basophils (setting [1]) and in the experiment on human basophils (setting [2]) were 2 µM, 10 to 30 µM and 3 µM, respectively.
As for `Cc1ccc2c(c1C)N(CCCNCc1ccccc1N(C)C)c1cnccc1[S+]2[O-]` (centres unmarked) [Example 38], in the experiment on RBL-2H3 cells, the IC50 worked out at 4 µM.
`COc1ccc(CNCCCN2c3ccsc3[S+]([O-])c3ccc(C)c(C)c32)o1` (centres unmarked) [Example 5]: in the experiment with RBL-2H3 cells, the IC50 worked out at 6 µM.
Turning to `Cc1ccc2c(c1C)N(CCCN)c1ccsc1[S+]2[O-]` (centres unmarked) [Example 3, 9-(3-Aminopropyl)-7,8-dimethyl-3-thieno[1,4]benzothiazine-4-oxide], in the experiment with RBL-2H3 cells, the IC50 worked out at 8 µM.
Turning to `COc1ccsc1CNCCCN1c2c(Br)csc2[S+]([O-])c2ccc(C)c(C)c21` (centres unmarked) [Example 9], the IC50 in the experiment with RBL-2H3 cells is 0.5 µM; in the experiment with human basophils (setting [1]), 10 to 30 µM; in the experiment on human basophils (setting [2]), 3 µM.
Take `Cc1ccc2c(c1C)N(CCCNCc1cccs1)c1ccsc1[S+]2[O-]` (centres unmarked) [Example 4, 7,8-Dimethyl-9-[3-(2-thiophenyl)methylaminopropyl]-3-thieno[1,4]benzothiazine-4-oxide]: the IC50 in the experiment with RBL-2H3 cells is 2 µM; in the experiment with human basophils (setting [1]) it was 10 to 30 µM; in the experiment on human basophils (setting [2]), 10 µM.
The like results for `Cc1ccc2c(c1C)N(CCCNCc1ccccc1O)c1cccnc1[S+]2[O-]` (centres unmarked) [Example 16] were, in that order, 2 µM, 10 µM and 10 to 30 µM.
Regarding `Cc1ccc2c(c1C)N(CCCNCc1ccccc1)c1c(sc(CO)c1Br)[S+]2[O-]` (centres unmarked) [Example 12, 1-Bromo-9-(3-benzylaminopropyl)-2-hydroxymethyl-7,8-dimethyl-3-thieno[1,4]benzothiazine-4-oxide], the results for the IC50 in the experiment with RBL-2H3 cells, with human basophils (setting [1]) and with human basophils (setting [2]) were 4 µM, 10 µM and 3 µM, respectively.
As to `Cc1ccc2c(c1C)N(CCCNCc1ccccc1)c1cnccc1[S+]2[O-]` (centres unmarked) [Example 36], the IC50 with RBL-2H3 cells turned out to be 4 µM.
